# Laboratory results reported in PubChem BioAssay AID1259371 (The Scripps Research Institute Molecular Screening Center, 2018).
# The source made the active and inactive calls. The rule behind the calls is not given here.
# Biological target: Microphthalmia-associated transcription factor (Homo sapiens) (UniProt O75030)
# Test: MITF inhibitors, potency by titration, dose response, biochemical, AlphaScreen, human (AID 1259371)
# Settings: AlphaScreen biochemical MITF assay, signal inhibition
# Sequence of Microphthalmia-associated transcription factor (Homo sapiens) (O75030 whole entry, looked up): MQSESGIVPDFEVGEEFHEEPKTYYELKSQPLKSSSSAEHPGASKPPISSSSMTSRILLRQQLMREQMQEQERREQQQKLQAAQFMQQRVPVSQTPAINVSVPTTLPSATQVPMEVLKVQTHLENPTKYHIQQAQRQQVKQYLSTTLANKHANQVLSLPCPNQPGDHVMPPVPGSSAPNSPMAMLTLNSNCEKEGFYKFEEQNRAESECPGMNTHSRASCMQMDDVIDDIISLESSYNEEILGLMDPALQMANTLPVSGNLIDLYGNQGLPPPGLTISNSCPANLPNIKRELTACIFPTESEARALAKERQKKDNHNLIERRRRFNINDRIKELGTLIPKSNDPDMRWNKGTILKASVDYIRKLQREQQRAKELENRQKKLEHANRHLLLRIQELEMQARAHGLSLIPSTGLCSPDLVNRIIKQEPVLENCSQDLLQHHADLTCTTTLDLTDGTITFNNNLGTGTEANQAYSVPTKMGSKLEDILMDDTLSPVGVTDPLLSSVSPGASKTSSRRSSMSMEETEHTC
row,Compound,IC50
1,NC(=O)NC(=O)COC(=O)c1c2c(nc3ccccc13)/C(=C\c1ccco1)CCC2,349 nM
2,Cc1cc2c(c(=O)[nH]1)C(=O)O/C2=C\c1ccc(C)o1,333 nM
3,N#C/C(=C\c1ccc(-c2ccccc2C(=O)O)o1)C(=O)NCc1ccco1,326 nM
4,Cc1ccc(C(=O)Nc2ccc([N+](=O)[O-])cn2)o1,> 6480 nM (inactive)
5,O=C(NCC(O)C(=O)N1CCOCC1)c1cccc(Nc2ccc3[nH]ncc3c2)n1 (configuration not stated),inactive
6,N#CC(C#N)=C(N)/C(C#N)=C/c1ccc([N+](=O)[O-])o1,467 nM
7,Cc1cc(NC(=O)C2CCN(C(=O)c3ccc(-n4cccc4)cc3)CC2)no1,inactive
8,Cc1cc(O)c2c(c1)Cc1cccc(O)c1C2=O,474 nM
9,CCC[C@@H]1NC(=O)[C@H]2CN(C(=O)NC3CCCCC3)CCN2C1=O,757 nM
10,CC(C)N(C(=O)COC(=O)c1cc(-c2ccco2)nc2ccccc12)C(C)C,inactive
11,O=C(O)c1ccccc1-c1ccc(/C=C/[N+](=O)[O-])o1,460 nM
12,O=C(O)c1cccc(N2C(=O)CC(Nc3ccc(N4CCOCC4)cc3)C2=O)c1 (configuration not stated),242 nM
13,CCc1ccc(NC(=O)CCc2nc(C3=CCN(C)CC3)no2)cc1,inactive
14,CCc1ccc(NC(=O)CS(=O)CC(=O)NCCCc2ccccc2)cc1 (configuration not stated),> 6480 nM (inactive)
15,C/C(=N\NC(=O)Cc1cc(=O)[nH][nH]1)c1ccco1,inactive
16,COc1cc(N2CCOCC2)ccc1Nc1cc(NC(C)(C)c2ccccc2)c(C(F)(F)F)cn1,inactive
17,Nc1cc(Br)cnc1N,61.9 nM
18,Cc1sc2nc(C)n3c(=O)n(CC(=O)NCc4ccco4)nc3c2c1C,inactive
19,N#C/C(=C(/O)COC(=O)c1cc2c(s1)CCC2)c1nc2ccccc2[nH]1,693 nM
20,O=C(NCc1ccccc1)N1CCN2C(=O)[C@@H]3CCCN3C(=O)[C@H]2C1,inactive
21,CN(C)CCS(=O)c1cc(-c2cn[nH]c2)ccc1NC(=O)[C@H]1Cc2cc(F)ccc2CN1 (some centres not stated),inactive
22,COC(=O)CN(CCN(CC(=O)O)CC(=O)OC)CC(=O)O,inactive
23,COc1cccc(COC(=O)Nc2cc(F)c(-c3cn[nH]c3)cc2OCCN(C)C)c1,inactive
24,Cc1ccc(-c2ncn(-c3ccc(Nc4cc(-n5cnc(Nc6ccccc6)n5)c(F)cn4)cc3)n2)cn1,inactive
25,COCCNC(=O)COC(=O)c1cc(-c2ccco2)nc2ccccc12,inactive
26,Cc1ccc(S(=O)(=O)C(CNC(=O)c2ccco2)c2cccs2)cc1 (configuration not stated),inactive

row,Compound,IC50
1,CC(=O)Oc1cc(C(=O)OCC(=O)Nc2ccc(C)cc2)cc(OC(C)=O)c1OC(C)=O,inactive
2,CCN(CC)c1ncnc2c1ncn2[C@@H]1O[C@H](COP(=O)(O)OP(=O)(O)C(Br)(Br)P(=O)(O)O)C(O)[C@@H]1O (some centres not stated),175 nM
3,O=C(O)c1cc([N+](=O)[O-])cc2c1-c1c(cc([N+](=O)[O-])cc1[N+](=O)[O-])/C2=C/c1ccco1,inactive
4,Cc1cccc(C(=O)Nc2c3c(nn2-c2ccc(F)cc2)CSC3)c1,> 5530 nM (inactive)
5,CN(C)C1C(=O)C(C(N)=O)=C(O)C2(O)C(=O)C3=C(O)c4c(O)cccc4C(C)(O)C3CC12 (configuration not stated),> 6480 nM (inactive)
6,COc1ccc(OC)c(CN2CCN(Cc3ccc(F)cc3)CC2)c1,> 6110 nM (inactive)
7,NC(=O)c1ccc(N=Cc2cc3c(cc2[N+](=O)[O-])OCO3)cc1,inactive
8,CN1CCN(C(=O)c2ccc(-c3nc(Nc4ccccc4)c4ncn(C5CCCCC5)c4n3)cc2)CC1,> 7630 nM (inactive)
9,N#Cc1c(SCC(=O)O)nc2c(c1-c1ccco1)CCC2,194 nM
10,CC(C)[C@H]1NC(=O)[C@H]2CN(C(=O)NC3CCCCC3)CCN2C1=O,inactive
11,Cc1ccccc1/C=C1\N=C(c2cc(C3=N/C(=C/c4ccccc4C)C(=O)O3)cc(C3=N/C(=C/c4ccccc4C)C(=O)O3)c2)OC1=O,inactive
12,C[C@@H](OCc1ccccc1)[C@@H]1NC(=O)[C@H]2CN(C(=O)Nc3cccc(F)c3)CCN2C1=O,inactive
13,Cc1cc(/C=C2/C=CC(=O)O2)oc1C,651 nM
14,O=C(COC(=O)COc1ccc(Cl)cc1)NCc1ccco1,> 2400 nM (inactive)
15,Cc1ncn(-c2ccc(N(C)c3ncc4cccc(-c5ccn[nH]5)c4n3)cc2)n1,> 6480 nM (inactive)
16,C=CCNCCOCCOc1ccc(OCC)cc1,> 6480 nM (inactive)
17,O=C1N[C@@H](COCc2ccccc2)C(=O)N2CCN(C(=O)NCc3ccccc3)C[C@H]12,inactive
18,O=C1N[C@H](Cc2ccc(O)cc2)C(=O)N2CCN(C(=O)NC3CCCCC3)C[C@H]12,> 2160 nM (inactive)
19,O=C(O)CCCNC(=O)/C=C/c1ccco1,> 2160 nM (inactive)
20,CN1C(=O)[C@H]2CN(C(=O)NC3CCCCC3)CCN2C(=O)[C@@H]1CO,> 6480 nM (inactive)
21,O=C(/C=C/c1ccco1)NCCCCNC(=O)/C=C/c1ccco1,180 nM
22,O=C(O)c1cc(N=Cc2ccco2)ccc1O,778 nM
23,NC(=O)c1cccc(-c2cccs2)c1,inactive
24,O=c1cc(/C=C/c2ccc(O)cc2)nc2nn[nH]n12,inactive
25,CCn1ccnc1CN1CCN(Cc2cccc(OC)c2)C(CCO)C1 (configuration not stated),> 6480 nM (inactive)
26,O=Cc1cccn1-c1ccc(C(=O)O)cc1,inactive

row,Compound,IC50
1,C=CCNC(=O)COC(=O)c1cc(-c2ccco2)nc2ccccc12,> 2310 nM (inactive)
2,O=C(O)c1cc2ncc(-c3n[nH]c(-c4cnc5cc(C(=O)O)nn5c4)c3[N+](=O)[O-])cn2n1,641 nM
3,CCOc1ccc(CN2CCN(Cc3cccnc3)CC2)cc1,> 5780 nM (inactive)
4,O=[N+]([O-])c1c(Br)ccc2c1no[n+]2[O-],inactive
5,O=C(O)c1cccc(-n2cccc2/C=C\[N+](=O)[O-])c1,271 nM
6,c1ccc(COc2ccc(OCCCCn3ccnc3)cc2)cc1,> 6480 nM (inactive)
7,O=C(OC1CCCC1=O)c1ccc(N2CCCC2=O)cc1 (configuration not stated),inactive
8,CCCCCCCCCCCCCCCC(=O)OC[C@H](O)[C@H]1OC(=O)C(=O)C1O (some centres not stated),inactive
9,CC1=C/C(=N\N=C2\NC(=O)C(CC(=O)Nc3ccc(C(=O)O)cc3)S2)CC(C)(C)C1 (configuration not stated),334 nM
10,S=c1[nH]nc(-c2cccnc2)n1/N=C/C=C/c1ccco1,472 nM
11,OCCNc1cc(-c2cccs2)ncn1,inactive
12,O=c1[nH]c(-c2ccco2)nc2sc3c(c12)CCCC3,42.3 nM
13,COC(=O)c1ccc(=O)c2nc3/c(=C/O)c(O)cc(=O)c3[nH]c12,259 nM
14,O=C(Nc1ccc(-c2cn[nH]c2)c(C(F)(F)F)c1)C1COc2ccccc2O1 (configuration not stated),> 2160 nM (inactive)
15,COc1ccc(S(=O)(=O)CCC(=O)Nc2nc3ccc(OC)cc3s2)cc1,> 4550 nM (inactive)
16,CC(O)(CNCCN1CCOCC1)COc1ccc(Cl)cc1 (configuration not stated),inactive
17,CN(C)/C=C/C=C/C(=O)C1CCC/C(=C\C=C\N(C)C)C1=O (configuration not stated),85 nM
18,N=C1S/C(=C\c2ccco2)C(=O)N1c1nonc1N,34 nM
19,Cc1cccc(CN2CCN(S(=O)(=O)c3ccccc3[N+](=O)[O-])CC2)c1,> 5080 nM (inactive)
20,CC(=O)Nc1ccc(N2C(=O)c3ccccc3C2(O)Cc2ccccc2)cc1 (configuration not stated),> 6480 nM (inactive)
21,CCOc1ccccc1N1CCN(Cc2cc(OC)c(O)c([N+](=O)[O-])c2)CC1,> 6480 nM (inactive)
22,O=C(O)CCN(CCC(=O)O)c1ccc(O)cc1,138 nM
23,O=C1OC(c2ccc(Cl)cc2Cl)=N/C1=C\c1ccc([N+](=O)[O-])o1,inactive
24,O=C(OC1CCCC1=O)c1ccc(S(=O)(=O)N2CCCCC2)cc1 (configuration not stated),inactive
25,Nc1ccc(C(=O)O)c(O)c1,63.5 nM
26,NC(=O)/C(=C\c1cccc([N+](=O)[O-])c1)NC(=O)c1ccc(Br)cc1,> 6480 nM (inactive)

row,Compound,IC50
1,COc1cccc(CN2CCN(C(=O)c3ccc(F)cc3)CC2)c1,inactive
2,Cc1cc(C(=O)O)ccc1-c1ccc(/C=C2/NC(=O)NC2=O)o1,inactive
3,O=C1NC(=S)N/C1=C\c1ccc([N+](=O)[O-])o1,239 nM
4,COc1ccc2c(c1)CC(C(=O)Nc1ccc(-c3cn[nH]c3)cc1C(=O)N(C)OC)CO2 (configuration not stated),inactive
5,Cc1cccc(OCC(=O)N2CCN(Cc3cccc(Br)c3)CC2)c1,> 6480 nM (inactive)
6,O=C(CSc1nsc(SCC(=O)Nc2ccc(Cl)c(Cl)c2)n1)Nc1ccc(Cl)c(Cl)c1,inactive
7,O=C1N[C@@H](CSCc2ccccc2)C(=O)N2CCN(C(=O)NC3CCCCC3)C[C@H]12,inactive
8,O=C(Nc1ccc(N2CCOCC2)cc1)c1ccc2nc(Nc3ccccn3)sc2c1,537 nM
9,O=C1N[C@H](Cc2ccccc2)C(=O)N2CCN(C(=O)NC3CCCCC3)C[C@H]12,873 nM
10,COC(C)(C)CNC(=O)C1CCN(C2CCN(Cc3cccc(C)n3)CC2)CC1,inactive
11,Cc1nnc(CNC(=O)c2ccc(-n3cccc3)cc2)o1,inactive
12,CN1CCN(CCNC(=O)c2cccc(CN(C(=O)c3nc4ccc(-c5cn[nH]c5)cc4s3)C3CC3)c2)CC1,645 nM
13,Cc1cc(C)n(C(=O)/C=C/c2ccco2)n1,817 nM
14,O=C(Nc1ccc(N2CCOCC2)cc1)c1ccc2nc(-c3cccs3)sc2c1,inactive
15,CN(C)c1ccc(O)c2c1C[C@H]1C[C@H]3[C@H](N(C)C)C(=O)C(C(N)=O)=C(O)[C@@]3(O)C(=O)C1=C2O,29.7 nM
16,NC(=O)c1cncc(-c2cccs2)c1,321 nM
17,Cc1ccn2c(NCC3CCCO3)c(-c3ccc(O)cc3O)nc2c1 (configuration not stated),80.9 nM
18,O=C1N[C@H](Cc2ccccc2)C(=O)N2CCN(C(=O)NCc3ccccc3)C[C@H]12,inactive
19,Cc1cc(C)n2nc(N)c(N)c2n1,> 11600 nM (inactive)
20,O=C1N[C@@H](Cc2c[nH]c3ccccc23)C(=O)N2CCN(C(=O)NC3CCCCC3)C[C@H]12,inactive
21,COc1cccc(C(=O)N2CCN(Cc3cccc(Cl)c3)CC2)c1,> 4800 nM (inactive)
22,CCc1ccc(CN2CCN(C(C)C)CC2)cc1,> 6890 nM (inactive)
23,CNC(=O)COc1cc(-c2cn[nH]c2)ccc1NC(=O)C1COc2ccc(OC)cc2C1 (configuration not stated),inactive
24,O=C1N[C@H](Cc2ccc(O)cc2)C(=O)N2CCN(C(=O)NCc3ccccc3)C[C@H]12,inactive
